# Paper PMC9124820, “In vitro evaluation of fenfluramine and norfenfluramine as victims of drug interactions” (Pharmacology Research & Perspectives, 2022)
# Columns and labels:
# [1] = Metabolic stability and metabolite identity, human liver S9 fractions; assay type: in vitro ADME
# Procedure: (§1) LC‐MS/MS analyses to assess metabolic stability and identify the transporter substrate were performed using an API 4000 QTRAP mass spectrometer (SCIEX, Framingham, MA) with electrospray ionization in positive mode. Chromatography was performed using an Atlantis dC18 analytical column (100 × 2.1 mm, 5 µm; Waters Corporation, Milford, MA). Mobile phases were 0.2% v/v formic acid in water and 0.2% v/v formic acid in acetonitrile. For metabolic stability experiments, FFA and metabolites were eluted at a flow rate of 0.6 mL/min, with a linear gradient of 20%−80% acetonitrile from 0.30−2.0 min. For transporter substrate experiments, the gradient was slightly modified to achieve suitable chromatography. The mass transitions monitored were 232.0 > 159.0 for FFA and 348.0 > 330.0 for 1ʹ‐OH‐midazolam‐d4 internal standard.
# For metabolic characterization experiments, LC‐MS/MS analyses were performed using an Acquity Ultra Performance Liquid Chromatography system with an in‐line photodiode array detector and ethylene bridged hybrid C18 columns (2.1 × 100 mm, 1.7 µm; Waters Corporation) coupled to a Synapt G2 HDMS QTOF (Waters Corporation). Mobile phases were 0.1% v/v formic acid in water and 0.1% v/v formic acid in methanol. FFA and metabolites were eluted at a flow rate of 0.5 mL/min with a linear gradient of 2.0%−35% methanol from 1.0−10.0 min. The mass spectrometer was operated in positive mode with electrospray ionization. Data were acquired over the range 50−1200 m/z (mass‐to‐charge ratio) using capillary voltage, 3.5 kV; extraction cone voltage, 4.0 V; source temperature, 120°C; and desolvation temperature, 350°C. A continuous lock mass reference compound, fexofenadine, was sampled at 10‐s intervals for centroid data mass correction. Data were processed with MetaboLynx XS, a component of MassLynx (v. 4.1) software (Waters Corporation).
# FFA (1 or 10 µM) was incubated with liver and intestinal S9 fractions (2 mg protein/mL) at 37 ± 1°C in 0.2‐mL incubation mixtures containing potassium phosphate buffer (50 mM, pH 7.4), magnesium chloride (MgCl2) (3 mM), and EDTA (1 mM, pH 7.4), in the presence or absence of a three‐component cofactor mixture (NADPH‐generating system, uridine diphosphate glucuronic acid (UDPGA) [8 mM], and 3’‐phosphoadenosine 5’‐phosphosulfate [0.5 mM]). The NADPH‐generating system consisted of NADP (1 mM, pH 7.4), glucose‐6‐phosphate (5 mM, pH 7.4), and glucose‐6‐phosphate dehydrogenase (1 U/mL). Reactions were initiated by adding the cofactor mix and were stopped at 0, 30, 60, or 120 min by adding an equal volume of acetonitrile. Cofactor controls were incubations performed in parallel in the absence of cofactor for 120 min. Additional incubations were performed with midazolam (10 μM) as a positive control to establish the metabolic competence of test systems. Samples were centrifuged at 920 × g for 10 min at 10°C. Supernatant fractions were analyzed by LC‐MS/MS.
# (§2) To characterize substrate loss and metabolic stability, duplicate samples were analyzed by LC‐MS/MS to determine the change in substrate concentration over the incubation period. The rate constant of elimination (kel, min^−1) was determined from the time course of substrate loss based on single exponential decay (A(t)=A0(‐kelt)) . Half‐life in vitro was determined by the following equation: t1/2 = 0.693/kel. The in vitro intrinsic clearance (CLint) was calculated from the rate constant of elimination as follows: CLintμL/min/mgprotein=kelmin^‐1×incubationvolume(μL)/mgproteinperincubation.
# (§3) Percent loss of substrate was determined by normalizing the mean analyte peak‐area ratio at each time point to the average of four replicates at the 0‐min time point (100%).
# [2] = Metabolic stability and metabolite identity, dog intestinal S9 fractions; assay type: in vitro ADME
# Procedure: as §1, with “standard. […]” for “standard.”
# FFA (1 or 10 µM) was incubated with liver and intestinal S9 fractions (2 mg protein/mL) at 37 ± 1°C in 0.2‐mL incubation mixtures containing potassium phosphate buffer (50 mM, pH 7.4), magnesium chloride (MgCl2) (3 mM), and EDTA (1 mM, pH 7.4), in the presence or absence of a three‐component cofactor mixture (NADPH‐generating system, uridine diphosphate glucuronic acid (UDPGA) [8 mM], and 3’‐phosphoadenosine 5’‐phosphosulfate [0.5 mM]). […] Supernatant fractions were analyzed by LC‐MS/MS.
# as §2, §3
# [3] = pH 7.4, 1 µM FFA, human liver S9 fractions 2 mg protein/mL, outside assay detection limits
# [4] = intestinal S9 fractions, pH 7.4, 1 µM FFA, dog intestine S9 fractions, outside assay detection limits
smiles,measurement,setting,value
"CCNC(C)Cc1cccc(C(F)(F)F)c1 (racemic) [FFA, (RS)‐ethyl (α‐methyl‐3‐trifluoromethylphenethyl)amine]",percent of the drug remaining,"[1]; human liver S9, 1 μM FFA with cofactors, 30 min",1.9%
same,percent of the drug remaining,"[1]; human liver S9, 1 μM FFA with cofactors, 60 min",11.1%
same,percent of the drug remaining,"[1]; human liver S9, 1 μM FFA with cofactors, 120 min",20.9%
same,percent of the drug remaining,"[1]; human liver S9, 1 μM FFA, absence of the cofactors",21.6%
same,percent of the drug remaining,"[1]; human liver S9, 10 μM FFA, absence of the cofactors",22.9%
same,half-life at 1 µM,[1]; [3],> 2 h
same,microsomal CLint at 1 µM,[1]; [3],< 2.9 µL/min/mg
same,percentage of FFA substrate loss at 10 µM relative to 1 µM,"[2]; dog intestinal S9 fractions, higher at 10 µM than at 1 µM",about 2 fold
same,half-life at 1 µM,[2]; [4],> 2 h
same,microsomal CLint at 1 µM,[2]; [4],< 2.9 µL/min/mg
